This assay addresses T1, Axl (Homo sapiens, UniProt P30530).
T1 construct: endogenous in cells; host or cells: HeLa cells
T1 sequence (P30530 26-894): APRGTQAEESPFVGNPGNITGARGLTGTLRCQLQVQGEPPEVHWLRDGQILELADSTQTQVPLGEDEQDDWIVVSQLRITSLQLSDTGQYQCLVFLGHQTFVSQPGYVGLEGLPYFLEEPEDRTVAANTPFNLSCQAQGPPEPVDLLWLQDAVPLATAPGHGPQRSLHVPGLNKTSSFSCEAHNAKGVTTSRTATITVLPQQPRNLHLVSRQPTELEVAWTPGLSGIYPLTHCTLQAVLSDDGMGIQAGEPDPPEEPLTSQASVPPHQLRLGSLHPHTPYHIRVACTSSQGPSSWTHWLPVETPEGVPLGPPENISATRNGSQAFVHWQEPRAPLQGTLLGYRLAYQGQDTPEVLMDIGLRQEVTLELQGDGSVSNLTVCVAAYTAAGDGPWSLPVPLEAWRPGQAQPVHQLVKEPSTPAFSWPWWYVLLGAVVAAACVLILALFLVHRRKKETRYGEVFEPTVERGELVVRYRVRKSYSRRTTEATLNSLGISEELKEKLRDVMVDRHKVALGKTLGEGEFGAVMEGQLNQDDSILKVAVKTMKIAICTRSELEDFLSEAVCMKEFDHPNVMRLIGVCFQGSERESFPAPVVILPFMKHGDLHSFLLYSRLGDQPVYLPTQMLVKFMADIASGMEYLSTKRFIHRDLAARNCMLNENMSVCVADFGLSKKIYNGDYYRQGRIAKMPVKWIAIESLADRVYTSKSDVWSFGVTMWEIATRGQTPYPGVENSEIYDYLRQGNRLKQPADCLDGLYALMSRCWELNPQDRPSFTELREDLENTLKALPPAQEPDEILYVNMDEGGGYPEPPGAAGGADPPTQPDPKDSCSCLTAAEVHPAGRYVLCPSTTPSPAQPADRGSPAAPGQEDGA
As to the kind of experiment: Phospho-Akt In-Cell Western Assay (inhibition of Axl activity after Axl-antibody cross-linking). Format: cell-based. Particulars: read-out: IC50. On the procedure:
The compounds of the invention were tested in the following assay for their ability to inhibit Axl activity.
Phospho-Akt In-Cell Western Assay
• Cell culture plate: 96 well assay plate (Corning 3610), white, clear bottom, tissue-culture treated. • Cells: Hela cells. • Starvation medium: For Axl stimulation: 0.5% FCS (fetal calf serum) in DMEM, plus Axl/Fc (extracellular domain of AXL fused to immunoglobulin Fc region) (R&D, 154-AL) 500 ng/mL. • For EGF (epidermal growth factor) stimulation: 0.5% FCS in DMEM (Dulbecco's modified Eagles medium). • Poly-L-Lysine 0.01% solution (the working solution): […], dilute In PBS (phosphate buffered saline). • Axl antibody cross-linking: • 1st: Mouse anti-Axl (R&D, MAB154). • 2nd: Biotin-SP-conjugated AffiniPure goat anti-mouse IgG (H+ L) (Jackson ImmunoResearch #115-065-003). • Fixing buffer: 4% formaldehyde in PBS. • Wash buffer: 0.1% TritonX-100 in PBS. • Quenching buffer: 3% H2O2, 0.1% Azide in wash buffer, Azide and hydrogen peroxide (H2O2) are added fresh. • Blocking buffer: 5% BSA in TBST (tris buffered saline plus 0.1% Tween 20). • Primary antibody: Rabbit anti-human Phospho-Akt antibody (Cell Signaling 9271): 1×250 diluted in blocking buffer. • Secondary antibody: HRP (horse radish peroxidase)-conjugated Goat anti-Rabbit secondary, stock solution: Jackson ImmunoResearch (Goat anti-Rabbit HRP, #111-035-144) 1:1 diluted in glycerol, store at −20° C. The working solution: 1×2000 dilution of stock in blocking buffer. • Chemiluminescent working solution (Pierce, 37030): SuperSignal ELISA (enzyme linked immunosorbant assay) Pico Chemiluminescent substrate. • Crystal Violet solution: Stock: 2.5% Crystal violet in methanol, filtered and kept at ambient temperature. The working solution: dilute the stock 1:20 with PBS immediately before use. • 10% SDS: working solution: 5% SDS (sodium dodecylsulfate), diluted in PBS Methods: Day 1:
A 96 well TC (tissue culture treated) plate was coated with 10 μg/mL poly-L-Lysine at 37° C. for 30 min, washed twice with PBS, and air-dried for 5 minutes before cells were added. Hela cells were seeded at 10,000 cells/well and the cells were starved in 100 μL starvation medium containing Axl/Fc for 24 hrs.
The cells were pre-treated with test compounds by adding 100 μL of 2× test compound to the starvation medium on the cells. The cells were incubated at 37° C. for 1 hr before stimulation.
The resulting mix was warmed to 37° C. 50 μL of 5×Axl 1st/2nd of antibody cluster was added to the cells and the cells were incubated at 37° C. for 5 min.
After 5 minutes stimulation, the plate was flicked to remove medium and the plate was tapped onto paper towels. Formaldehyde (4.0% in PBS, 100 μL) was added to fix the cells and the cells were incubated at ambient temperature for 20 min without shaking.
The cells were washed with a plate washer buffer to remove the formaldehyde solution. The plate was flicked to removed excess wash buffer and tapped onto paper towels. Quenching buffer (100 μL) was added to each well and the cells were incubated at ambient temperature for 20 minutes without shaking.
The cells were washed with a plate washer buffer to remove the quenching buffer. Blocking buffer (100 μL) was added and the cells were incubated at ambient temperature for at least an hour with gentle shaking.
The cells were washed with a plate washer buffer and diluted primary antibody (50 μL) was added to each well (blocking buffer was added to the negative control wells instead). The plates were incubated overnight at 4° C. with gentle shaking.
The wash buffer was removed, diluted secondary antibody (100 μL) was added, and the cells were incubated at ambient temperature for 1 hour with gentle shaking. During the incubation, the chemiluminescent reagent was brought to ambient temperature.
The secondary antibody was removed by washing the cells 1× with wash buffer, 1× with PBS by plate washer.

Setting [1] is: Hela cells, phospho-Akt chemiluminescence normalized to relative cell number, compounds of formula (Ib), Table 2.
The mark [2] stands for this setting: Hela cells, phospho-Akt chemiluminescence normalized to relative cell number, compounds of formula (Ia), Table 1.
The mark [3] stands for this setting: inhibition of Axl activity, Table 1, compounds of formula (Ia).

Read-outs that look alike come from different tables or passages of the source. Bounds are passed on as bounds.

16 compounds from patent US7709482B2, “Polycyclic heteroaryl substituted triazoles useful as Axl inhibitors” (Rigel Pharmaceuticals, Inc., priority 2006, dated 2010) can be followed below.

Usually IC50 stands for the concentration that gives 50% inhibition.

Turning to `CN1CCC(N2CCc3ccc(Nc4nc(N)nn4-c4cc5c(nn4)-c4ccccc4CCC5)cc3C2)CC1` [Compound 245, 1-(6,7-dihydro-5H-benzo[6,7]cyclohepta[1,2-c]pyridazin-3-yl)-N^5-(2-(1-methylpiperidin-4-yl)-1,2,3,4-tetrahydroisoquinolin-7-yl)-1H-1,2,4-triazole-3,5-diamine], the IC50 under setting [1] was in the range of 1 to 10 µM. For the compound `CN1CCN(c2ccc(Nc3nc(N)n(-c4cc5c(nn4)-c4ccccc4N(C)CC5)n3)cc2)CC1` [Compound 41, 1-(7-methyl-6,7-dihydro-5H-benzo[2,3]azepino[4,5-c]pyridazin-3-yl)-N^3-(4-(N-methylpiperazin-1-yl)phenyl)-1H-1,2,4-triazole-3,5-diamine], the IC50 under setting [2] is 1 to 10 µM. For the compound `Nc1nc(Nc2ccc(N3CC[C@H]4CCCC[C@@H]4C3)c(F)c2)nn1-c1cc2c(nn1)-c1ccccc1SCC2` [Compound 126, 1-(6,7-dihydro-5H-benzo[2,3]thiepino[4,5-c]pyridazin-3-yl)-N^3-(3-fluoro-4-((4aR,8aS)-decahydroisoquinolin-2-yl)phenyl)-1H-1,2,4-triazole-3,5-diamine], the IC50 under setting [2] is above 20 µM.

Consider `CN1CCN(C2CCN(c3ccc(Nc4nc(N)n(-c5cc6c(nn5)CCCc5ccccc5-6)n4)cc3F)CC2)CC1` [Compound 85, 1-(6,7-dihydro-5H-benzo[6,7]cyclohepta[4,5-c]pyridazin-2-yl)-N^3-(3-fluoro-4-(4-(N-methylpiperazin-1-yl)piperidin-1-yl)phenyl)-1H-1,2,4-triazole-3,5-diamine], for which the IC50 under setting [2] was below 1 µM. On to `Cc1csc2c(-n3nc(Nc4cnc5c(c4)CC4(CCC5)OCCO4)nc3N)nc(Cl)nc12` [Compound 240, 1-(2-chloro-7-methylthieno[3,2-d]pyrimidin-4-yl)-N^3-(5,7,8,9-tetrahydrospiro[cyclohepta[b]pyridine-6,2′-[1,3]dioxolane]-3-yl)-1H-1,2,4-triazole-3,5-diamine], for which the IC50 under setting [3] was below 1 µM.

For the compound `CC(C)N1CCN(CC=Cc2ccc(Nc3nc(N)n(-c4cc5c(nn4)-c4ccccc4CCC5)n3)cc2)CC1` [Compound 205, 1-(6,7-dihydro-5H-benzo[6,7]cyclohepta[1,2-c]pyridazin-3-yl)-N^3-(4-(4-isopropylpiperazin-1-ylprop-1-enyl)phenyl)-1H-1,2,4-triazole-3,5-diamine], under setting [3], the half-maximal inhibitory concentration (IC50) is below 1 µM.

With `Nc1nc(Nc2ccc3c(c2)CCC(NCC(=O)O)CC3)nn1-c1cc2c(nn1)-c1ccccc1CCC2` (stereo not shown) [Compound 237, 1-(6,7-dihydro-5H-benzo[6,7]cyclohepta[1,2-c]pyridazin-3-yl)-N^3-(7-(carboxymethyl)amino-6,7,8,9-tetrahydro-5H-benzo[7]annulene-2-yl)-1H-1,2,4-triazole-3,5-diamine], under setting [3], the IC50 is above 20 µM. Consider `Nc1nc(Nc2ccc3c(c2)CCC(N2CCCCC2)CC3)nn1-c1cc2c(nn1)-c1ccccc1CCC2` (stereo not shown) [Compound 150, 1-(6,7-dihydro-5H-benzo[6,7]cyclohepta[1,2-c]pyridazin-3-yl)-N^3-((7-piperidin-1-yl)-6,7,8,9-tetrahydro-5H-benzo[7]annulene-2-yl)-1H-1,2,4-triazole-3,5-diamine], for which the IC50 under setting [3] was below 1 µM. In the case of `Nc1nc(Nc2ccc(N3CCC(N4CCCC4)CC3)c(F)c2)nn1-c1cc2c(nn1)-c1ccccc1OCC2` [Compound 117, 1-(6,7-dihydro-5H-benzo[2,3]oxepino[4,5-c]pyridazin-3-yl)-N^3-(3-fluoro-4-(4-pyrrolidin-1-ylpiperidinyl)phenyl)-1H-1,2,4-triazole-3,5-diamine], the IC50 under setting [2] was below 1 µM. For the compound `Nc1nc(Nc2ccc3c(c2)CN(CC2CC2)CC3)nn1-c1cc2c(nn1)-c1ccccc1CCC2` [Compound 216, 1-(6,7-dihydro-5H-benzo[6,7]cyclohepta[1,2-c]pyridazin-3-yl)-N^3-(2-(cyclopropylmethyl)-1,2,3,4-tetrahydroisoquinolin-7-yl)-1H-1,2,4-triazole-3,5-diamine], the IC50 under setting [3] was below 1 µM. For `CCCN1CC2CN(c3ccc(Nc4nc(N)n(-c5cc6c(nn5)-c5ccccc5CCC6)n4)cc3F)CC2C1` (stereo not shown) [Compound 72, 1-(6,7-dihydro-5H-benzo[6,7]cyclohepta[1,2-c]pyridazin-3-yl)-N^3-(3-fluoro-4-(5-propyl-octahydropyrrolo[3,4-c]pyrrolyl)phenyl)-1H-1,2,4-triazole-3,5-diamine], the 50% inhibitory concentration (IC50) under setting [2] was below 1 µM. Turning to `Nc1nc(Nc2ccc(N3CCN(CC4CC4)CC3)nc2)nn1-c1cc2c(nn1)-c1ccccc1CCC2` [Compound 187, 1-(6,7-dihydro-5H-benzo[6,7]cyclohepta[1,2-c]pyridazin-3-yl)-N^3-(2-(4-cyclopropylmethylpiperazin-1-yl)pyridine-5-yl)-1H-1,2,4-triazole-3,5-diamine], the IC50 under setting [3] fell in the range of 1 to 10 µM. Take `Nc1nc(Nc2ccc3c(c2)CNCC3)nn1-c1cc2c(nn1)-c1ccccc1CCC2` [Compound 213, 1-(6,7-dihydro-5H-benzo[6,7]cyclohepta[1,2-c]pyridazin-3-yl)-N^3-(1,2,3,4-tetrahydroisoquinolin-7-yl)-1H-1,2,4-triazole-3,5-diamine]: the IC50 under setting [3] is below 1 µM.

Turning to `Nc1nc(Nc2ccc(C(=O)N3CCC(N4CCCC4)CC3)cc2)nn1-c1cc2c(nn1)-c1ccccc1CCC2` [Compound 22, 1-(6,7-dihydro-5H-benzo[6,7]cyclohepta[1,2-c]pyridazin-3-yl)-N^3-(4-((4-(pyrrolidin-1-yl)piperidin-1-yl)carbonyl)phenyl)-1H-1,2,4-triazole-3,5-diamine], the IC50 under setting [2] is below 1 µM.

On to `Nc1nc(Nc2ccc3c(c2)CC[C@@H](N2CCCC2)CC3)n(-c2cc3c(nn2)-c2ccccc2CCC3)n1` [Compound 249, 1-(6,7-dihydro-5H-benzo[6,7]cyclohepta[1,2-c]pyridazin-3-yl)-N^5-(7-(S)-pyrrolidin-1-yl-6,7,8,9-tetrahydro-5H-benzo[7]annulene-2-yl)-1H-1,2,4-triazole-3,5-diamine], for which the IC50 under setting [1] is below 1 µM. On to `Nc1nc(Nc2ccc(N3CCC(N4CCCC4)CC3)cc2)n(-c2cc3c(nn2)-c2ccccc2CCC3)n1` [Compound 164, 1-(6,7-dihydro-5H-benzo[6,7]cyclohepta[1,2-c]pyridazin-3-yl)-N^5-(4-(4-pyrrolidin-1-ylpiperidinyl)phenyl)-1H-1,2,4-triazole-3,5-diamine], for which, under setting [1], the concentration for half-maximal inhibition (IC50) lay in the range of 1 to 10 µM.
